Laboratory results taken from patent US20130045962A1, “PEPTIDE DEFORMYLASE INHIBITORS” (priority 2007, published 2013).
In brackets after ≈: the same amount, converted by molar mass. Several values for one entry are separate records, joined by “and”; a condition that tells them apart may be missing. Equal entries are not always repeated. Where two headings read alike, the source gives them in different places.

Legend:
Assay in all cases: Antimicrobial activity assay (broth microdilution MIC)
Format in all cases: cell-based
[1] = system: Streptococcus pneumoniae 1629; conditions: median of all results obtained, read-out: MIC S. pneumoniae 1629
Protocol: (§1) Whole-cell antimicrobial activity was determined by broth microdilution using the Clinical and Laboratory Standards Institute (CLSI, formerly NCCLS) recommended methodology (NCCLS Document M7-A6, “Methods for Dilution Susceptibility Tests for Bacteria that Grow Aerobically Approved Standard Sixth Edition”, 2003). Compounds were tested in serial two-fold dilutions ranging from 64 to 0.06 μg/mL. A panel of 12 strains was evaluated in the assay. This panel consisted of the following laboratory strains: Staphylococcus aureus Oxford, Staphylococcus aureus WCUH29, Enterococcus faecalis I, Enterococcus faecalis 7, Haemophilus influenzae Q1, Haemophilus influenzae NEMC1, Moraxella catarrhalis 1502, Streptococcus pneumoniae 1629, Streptococcus pneumoniae N1387, Streptococcus pneumoniae Ery2, Escherichia coli 7623 (AcrABEFD+) and Escherichia coli 120 (AcrAB−). The minimum inhibitory concentration (MIC) was determined as the lowest concentration of compound that inhibited visible growth. A mirror reader was used to assist in determining the MIC endpoint.

[2] = system: Staphylococcus aureus Oxford; conditions: median of all results obtained, read-out: MIC S. aureus Oxford
Protocol: as §1

[3] = system: Streptococcus pneumoniae N1387; conditions: median of all results obtained, read-out: MIC S. pneumoniae N1387
Protocol: as §1

Enterococcus faecalis 7 = conditions: median of all results obtained, read-out: MIC E. faecalis 7
Protocol: as §1

[4] = system: Haemophilus influenzae NEMC1; conditions: for MIC: Haemophilus influenzae, read-out: MIC H. influenzae NEMC1
Protocol: as §1

[5] = system: Escherichia coli 120 (AcrAB−); conditions: for MIC: Escherichia coli; for MIC E. coli 120 AcrAB—: individual results, panel run 2 times
Protocol: as §1

[6] = system: Escherichia coli 7623 (AcrABEFD+); conditions: for MIC: Escherichia coli, read-out: MIC E. coli 7623 AcrABEFD+
Protocol: as §1

Enterococcus faecalis I = conditions: median of all results obtained, read-out: MIC E. faecalis I
Protocol: as §1

[7] = system: Haemophilus influenzae Q1; conditions: for MIC: Haemophilus influenzae, read-out: MIC H. influenzae Q1; for MIC H. influenzae Q1: individual results
Protocol: as §1

[8] = NEMC1, median of all results obtained
[9] = read-out: MIC E. coli 120 AcrAB—, median of all results obtained
[10] = Q1, median of all results obtained
[11] = NEMC1, individual results, panel run 2 times
[12] = individual results, panel run 2 times
[13] = Q1, individual results, panel run 2 times

Structure (SMILES)	MIC [4, 8] [µg/mL]	MIC [5, 9] [µg/mL]	MIC ([6]; median of all results obtained) [µg/mL]	MIC [7, 10] [µg/mL]	MIC [4, 11] [µg/mL]	MIC E. coli 120 AcrAB— [5]	MIC [7, 13] [µg/mL]	MIC E. coli 7623 AcrABEFD+ [6, 12]	MIC H. influenzae Q1 ([7]; panel run 2 times) [µg/mL]	other results
Cc1nc(NNC(=O)[C@H](CC2CCCC2)CN(O)C=O)c(F)c(N2CCN3CCOC[C@@H]3C2)n1 [Example 24, [(2R)-2-(Cyclopentylmethyl)-3-(2-{5-fluoro-6-[(9aS)-hexahydropyrazino[2,1-c][1,4]oxazin-8(1H)-yl]-2-methyl-4-pyrimidinyl}hydrazino)-3-oxopropyl]hydroxyformamide]	1 (≈ 2.09 µM)	0.188 (≈ 0.391 µM)	16 (≈ 33.4 µM)	0.5 (≈ 1.04 µM)						MIC [1]: 0.75 µg/mL (≈ 1.56 µM); MIC [2]: 2 µg/mL (≈ 4.17 µM); MIC [3]: 0.5 µg/mL (≈ 1.04 µM); MIC (Enterococcus faecalis 7): 32 µg/mL (≈ 66.7 µM); MIC (Enterococcus faecalis I): 48 µg/mL (≈ 100 µM)
C[C@@H]1CN(C)CCN1c1nc(Cl)nc(NNC(=O)[C@H](CC2CCCC2)CN(O)C=O)c1F [Example 63, [(2R)-3-(2-{2-Chloro-6-[(2R)-2,4-dimethyl-1-piperazinyl]-5-fluoro-4-pyrimidinyl}hydrazino)-2-(cyclopentylmethyl)-3-oxopropyl]hydroxyformamide]	0.5 (≈ 1.06 µM)	0.25 (≈ 0.53 µM)	4 (≈ 8.48 µM)	0.25 (≈ 0.53 µM)						
Cc1nc(NNC(=O)[C@H](CC2CCCC2)CN(O)C=O)c(F)c(N2CCN(C)C[C@H]2C)n1 [Example 109, [(2R)-2-(Cyclopentylmethyl)-3-(2-{6-[(2R)-2,4-dimethyl-1-piperazinyl]-5-fluoro-2-methyl-4-pyrimidinyl}hydrazino)-3-oxopropyl]hydroxyformamide]					1 (≈ 2.21 µM)	≦0.06, μg/mL and 0.125 μg/mL	0.5 (≈ 1.11 µM)			MIC [6, 12]: 8 µg/mL (≈ 17.7 µM)
CN1CCN(c2nc(Cl)nc(NNC(=O)[C@H](CC3CCCC3)CN(O)C=O)c2F)CC12CC2 [Example 172, [(2R)-3-{2-[2-Chloro-5-fluoro-6-(4-methyl-4,7-diazaspiro[2.5]oct-7-yl)-4-pyrimidinyl]hydrazino}-2-(cyclopentylmethyl)-3-oxopropyl]hydroxyformamide]					1 (≈ 2.07 µM)		1 (≈ 2.07 µM)	4 µg/mL and 16 µg/mL	2 (≈ 4.13 µM)	MIC H. influenzae NEMC1 [4, 12]: 2 µg/mL (≈ 4.13 µM); MIC ([5]; read-out: MIC E. coli 120 AcrAB—, individual results, panel run 2 times): 0.125 to 0.5 µg/mL (≈ 0.258 to 1.03 µM)
Cc1nc(NNC(=O)[C@H](CC2CCCC2)CN(O)C=O)c(F)c(N2CCN(C)C3(CC3)C2)n1 [Example 275, ((2R)-2-(Cyclopentylmethyl)-3-{2-[5-fluoro-2-methyl-6-(4-methyl-4,7-diazaspiro[2.5]oct-7-yl)-4-pyrimidinyl]hydrazino}-3-oxopropyl)hydroxyformamide]					1 (≈ 2.16 µM)	≦0.06, μg/mL and 0.5 μg/mL	0.5 (≈ 1.08 µM)	4 µg/mL and 16 µg/mL	1 (≈ 2.16 µM)	
